# Measured values published in US11008572B2, “Methods and compositions for modulating splicing” (SKYHAWK THERAPEUTICS, INC., priority 2017, dated 2021).
# Tested on: FOXM1^A2 mRNA and FOXM1^BC mRNA
# Experiment: Splicing assay (FOXM1), qPCR of isoform mRNAs
# Type: cell-based
# Conditions: FoxM1 A mRNA increase (exon excluded); 0.1-1000 nM, 24 hours; read-out: Splice EC50 (nM), FoxM1 A mRNA increase (exon excluded)
# Protocol: Various cells lines were treated with the SMSMs described herein. RNA was then isolated, cDNA synthesized, qPCR performed and the levels of various mRNA targets of the SMSMs were determined. In some instances, RNA was isolated, cDNA synthesized, qPCR performed and the levels of mRNA isoforms in the various cell samples were determined.
# On the day of the experiment, a 96-well plate was seeded with the cell lines of interest. The cells were diluted with full growth media to a concentration of 2.0×10^5 cells/mL and 100 μL of cells were added to each well (20,000 cells per well). The cells were treated with a compound immediately after plating.
# The compounds were then added to the cell plate using the HP compound dispenser. In the initial experiment, a top concentration of 10 μM and an 8 point 4-fold dilution scheme was used. The stock compounds were made at a concentration of 5 mM, and the DMSO concentration was set to 0.2%. DMSO was used to normalize all the compound-containing wells and the untreated cells.
# The treated cells were incubated at 37° C. in a 5% CO2 incubator for the desired amount of time. Plates were placed in a plastic bag with a wet paper towel to prevent evaporation.
# RNA was isolated using the Cells to CT kit (ThermoFisher, AM1728). The cells were washed once with 100 μL cold PBS. 50 μL of lysis buffer was added to each well/tube (49.5 μL lysis buffer+0.5 μL DNase I per well/tube). The lysis reaction was mixed and incubated at room temperature for 5 minutes. 5 μL of stop solution was added directly into each cell lysis reaction and mixed by pipetting up and down 5 times. The plates/tubes were incubated at room temperature for 2 minutes then placed on ice if the cDNA synthesis was to be performed immediately. Otherwise, the plates/tubes were stored at −80° C. cDNA synthesis reactions were then performed. Reverse Transcription (RT) Master mix was prepared according to the table below.
# 40 μL RT master mix was added to PCR tubes or plate wells. 10 μL of RNA was added to each tube/well. The RT thermal cycler program was then run and tubes or plate wells were incubated at 37° C. for 1 hour, then at 95° C. for 5 minutes to deactivate the enzyme.
# The qPCR was performed using a QuantStudio 6 instrument (ThermoFisher) and the following cycling conditions and according to the tables below. All samples and standards were analyzed in triplicate. Cycle 1: 2 minutes at 50° C. Cycle 2: 10 minutes at 95° C. Cycle 3 (repeat 40 times): 15 seconds at 95° C., 1 minute at 60° C.
# The determined isoform 2and isoform 1quantities were then be used to determine the isoform 2: […] at the various compound concentrations. The PPIA quantities were used in the normalization to account of cell proliferation effects of the compounds.
# The dilution necessary to make the top standard is calculated. A top concentration 200,000,000 copies/μL of the stock plasmid was prepared in TE buffer. A series of 10-fold dilutions, also in TE, were then made. A total of 5 μL of each standard was used in a qPCR well to generate samples containing 109 copies, […], 10^7copies, 10^6 copies, 10^5 copies, 10^4 copies, 10^3 copies, 10^2 copies, 10^1copies, and 0 copies.
# An assay to measure the FOXM1^A2 mRNA and FOXM1^BC mRNA, or MADD^WT (isoform 4) mRNA and MADD^Ex16 (isoform 3) mRNA, or MAPTau^4R mRNA and MAPTau^3R mRNA simultaneously in cell wells was performed. The RNA values were measured relative to DMSO control and also included a housekeeping gene, PPIA to ensure data was consistent. The mRNA values were measured after 24 hours of incubation with the SMSM compounds.
row,Compound,EC50 [nM]
1,"2-(6-(((1R,3s,5S)-8-azabicyclo[3.2.1]octan-3-yl)oxy)pyridazin-3-yl)-5-(1H-1,2,3-triazol-4-yl)phenol [compound 253]",251 to 500

# Same assay, conditions: FoxM1 BC mRNA decrease (exon included); 0.1-1000 nM, 24 hours; read-out: Splice IC50 (nM), FoxM1 BC mRNA decrease (exon included)
row,Compound,IC50 [nM]
1,"2-(6-(((1R,3s,5S)-8-azabicyclo[3.2.1]octan-3-yl)oxy)pyridazin-3-yl)-5-(1H-1,2,3-triazol-4-yl)phenol [compound 253]",251 to 500

# Tested on: A-673 cells
# Experiment: Cell viability, crystal violet staining
# Type: cell-based
# Conditions: Homo sapiens, A673, cell viability, read-out: A-673 IC50 (nM), Cell viability
# Summary of the method: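 Readout is absorbance at 570 nm of crystal violet, taken up in 0.1 M sodium citrate in 50% ethanol after staining with 0.5% dye in 25% methanol. Plates held 5×10^3 cells per well, and compounds were added one day after seeding for 72 hours. Data are relative to vehicle, mean±SE.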
row,Compound,IC50 [nM]
1,"[2H]C([2H])([2H])n1cc(-c2ccc(-c3ccc(N(C)[C@@H]4C[C@H]5CCC[C@@H](C4)N5)nn3)c(O)c2)cn1 [compound 288, 2-(6-(((1R,3s,5S)-9-azabicyclo[3.3.1]nonan-3-yl)(methyl)amino)pyridazin-3-yl)-5-(1-(methyl-d3)-1H-pyrazol-4-yl)phenol]",10 to 100
2,"Cc1cc(-c2ccc(-c3ccc(N(C)[C@@H]4C[C@H]5CCC[C@@H](C4)N5)nn3)c(O)c2)cc(=O)n1C [compound 290, 4-(4-(6-(((1R,3s,5S)-9-azabicyclo[3.3.1]nonan-3-yl)(methyl)amino)pyridazin-3-yl)-3-hydroxyphenyl)-1,6-dimethylpyridin-2(1H)-one]",251 to 500
3,"CN(c1ccc(-c2ccc(-c3ccn(CF)c(=O)c3)cc2O)nn1)[C@@H]1C[C@H]2CCC[C@@H](C1)N2 [compound 291, 4-(4-(6-(((1R,3s,5S)-9-azabicyclo[3.3.1]nonan-3-yl)(methyl)amino)pyridazin-3-yl)-3-hydroxyphenyl)-1-(fluoromethyl)pyridin-2(1H)-one]",< 10
4,"COc1cc(-c2ccc(-c3ccc(N(C)[C@@H]4C[C@H]5CCC[C@@H](C4)N5)nn3)c(O)c2)ccc1C [compound 292, 4-(6-(((1R,3s,5S)-9-azabicyclo[3.3.1]nonan-3-yl)(methyl)amino)pyridazin-3-yl)-3′-methoxy-4′-methyl-[1,1′-biphenyl]-3-ol]",> 1000
5,"CN(c1ccc(-c2ccc(-c3cc[nH]c(=O)c3)cc2O)nn1)[C@@H]1C[C@H]2CCC[C@@H](C1)N2 [compound 293, 4-(4-(6-(((1R,3s,5S)-9-azabicyclo[3.3.1]nonan-3-yl)(methyl)amino)pyridazin-3-yl)-3-hydroxyphenyl)pyridin-2(1H)-one]",10 to 100
6,"CNC(=O)c1cc2cc(O)c(-c3ccc(N(C)[C@@H]4C[C@H]5CCC[C@@H](C4)N5)nn3)cc2o1 [compound 294, 6-(6-(((1R,3s,5S)-9-azabicyclo[3.3.1]nonan-3-yl)(methyl)amino)pyridazin-3-yl)-5-hydroxy-N-methylbenzofuran-2-carboxamide]",501 to 1000
7,"CN(C)C(=O)c1cc2cc(O)c(-c3ccc(N(C)[C@@H]4C[C@H]5CCC[C@@H](C4)N5)nn3)cc2o1 [compound 295, 6-(6-(((1R,3s,5S)-9-azabicyclo[3.3.1]nonan-3-yl)(methyl)amino)pyridazin-3-yl)-5-hydroxy-N,N-dimethylbenzofuran-2-carboxamide]",251 to 500
8,"CNC(=O)c1cc2cc(-c3ccc(N(C)[C@@H]4C[C@H]5CCC[C@@H](C4)N5)nn3)c(O)cc2o1 [compound 297, 5-(6-(((1R,3s,5S)-9-azabicyclo[3.3.1]nonan-3-yl)(methyl)amino)pyridazin-3-yl)-6-hydroxy-N-methylbenzofuran-2-carboxamide]",10 to 100
9,"CN(C)C(=O)c1cc2cc(-c3ccc(N(C)[C@@H]4C[C@H]5CCC[C@@H](C4)N5)nn3)c(O)cc2o1 [compound 298, 5-(6-(((1R,3s,5S)-9-azabicyclo[3.3.1]nonan-3-yl)(methyl)amino)pyridazin-3-yl)-6-hydroxy-N,N-dimethylbenzofuran-2-carboxamide]",10 to 100
10,"CN(c1ccc(-c2cc3cc(C(=O)NC4CC4)oc3cc2O)nn1)[C@@H]1C[C@H]2CCC[C@@H](C1)N2 [compound 299, 5-(6-(((1R,3s,5S)-9-azabicyclo[3.3.1]nonan-3-yl)(methyl)amino)pyridazin-3-yl)-N-cyclopropyl-6-hydroxybenzofuran-2-carboxamide]",10 to 100
11,"CN(c1ccc(-c2ccc(-c3cc(=O)n(C)cn3)cc2O)nn1)[C@@H]1C[C@H]2CCC[C@@H](C1)N2 [compound 300, 6-(4-(6-(((2R,3s,5S)-9-azabicyclo[3.3.1]nonan-3-yl)(methyl)amino)pyridazin-3-yl)-3-hydroxyphenyl)-3-methylpyrimidin-4(3H)-one]",10 to 100
12,"CN(c1ccc(-c2ccc(-c3cnn(C(F)F)c3)cc2O)nn1)[C@@H]1C[C@H]2CCC[C@@H](C1)N2 [compound 301, 2-(6-(((1R,3s,5S)-9-azabicyclo[3.3.1]nonan-3-yl)(methyl)amino)pyridazin-3-yl)-5-(1-(difluoromethyl)-1H-pyrazol-4-yl)phenol]",10 to 100
13,"C[C@]12CC[C@](C)(C[C@@H](N(c3ccc(-c4ccc(-c5cn[nH]c5)cc4O)nn3)C3CC3)C1)N2 [compound 302, 2-(6-(cyclopropyl((1R,3s,5S)-1,5-dimethyl-8-azabicyclo[3.2.1]octan-3-yl)amino)pyridazin-3-yl)-5-(1H-pyrazol-4-yl)phenol]",10 to 100
14,"[2H]C([2H])([2H])c1ncc(-c2ccc(-c3ccc(N(C)[C@H]4C[C@]5(C)CC[C@](C)(C4)N5)nn3)c(O)c2)o1 [compound 303, 2-(6-(((1R,3s,5S)-1,5-dimethyl-8-azabicyclo[3.2.1]octan-3-yl)(methyl)amino)pyridazin-3-yl)-5-(2-(methyl-d3)oxazol-5-yl)phenol]",10 to 100
15,"CN(c1ccc(-c2ccc(-c3ccn(C)c(=O)n3)cc2O)nn1)[C@H]1C[C@]2(C)CCC[C@](C)(C1)N2 [compound 305, 4-(4-(6-(((1R,3s,5S)-1,5-dimethyl-9-azabicyclo[3.3.1]nonan-3-yl)(methyl)amino)pyridazin-3-yl)-3-hydroxyphenyl)-1-methylpyrimidin-2(1H)-one]",101 to 250

# Same assay, conditions: Homo sapiens, A673, cell viability, read-out: A-673 IC50 (nM), cell viability
row,Compound,IC50 [nM]
1,"CN(c1ccc(-c2ccc(-c3cc[nH]c(=O)c3)cc2O)nn1)[C@H]1C[C@]2(C)CCC[C@](C)(C1)N2 [compound 306, 4-(4-(6-(((1R,3s,5S)-1,5-dimethyl-9-azabicyclo[3.3.1]nonan-3-yl)(methyl)amino)pyridazin-3-yl)-3-hydroxyphenyl)pyridin-2(1H)-one]",< 10
2,"CN(c1ccc(-c2ccc(-c3ccnc(OC(F)F)c3)cc2O)nn1)[C@H]1C[C@]2(C)CCC[C@](C)(C1)N2 [compound 308, 5-(2-(difluoromethoxy)pyridin-4-yl)-2-(6-(((1R,3s,5S)-1,5-dimethyl-9-azabicyclo[3.3.1]nonan-3-yl)(methyl)amino)pyridazin-3-yl)phenol]",501 to 1000

# Same assay, conditions: Homo sapiens, A673, read-out: A-673 cell viability (IC50)
row,Compound,IC50 [nM]
1,"CN(c1ccc(-c2ccc(-c3cc[nH]c(=O)c3)cc2O)nn1)[C@H]1C[C@]2(C)CCC[C@](C)(C1)N2 [compound 306, 4-(4-(6-(((1R,3s,5S)-1,5-dimethyl-9-azabicyclo[3.3.1]nonan-3-yl)(methyl)amino)pyridazin-3-yl)-3-hydroxyphenyl)pyridin-2(1H)-one]",< 3

# Same assay, conditions: cell viability, read-out: A-673 IC50 (nM), Cell viability
row,Compound,IC50 [nM]
1,"2-(6-(((1R,3s,5S)-8-azabicyclo[3.2.1]octan-3-yl)oxy)pyridazin-3-yl)-5-(1H-1,2,3-triazol-4-yl)phenol [compound 253]",501 to 1000
